{"source": "patent US9834525B2", "about": "“Inhibitors of paxillin function and related compositions and methods” (UNIVERSITY OF TENNESSEE RESEARCH FOUNDATION, priority 2015, dated 2017)", "key": {"[1]": {"system": "paxillin (pY118) in OMM 2.5 cells", "assay": "Western blot of pY118 and total paxillin in HGF-treated metastatic UM cells", "assay_type": "cell-based, human", "conditions": "HGF-treated OMM 2.5 cells, 4 hrs", "description": "REC, Mel 270, OMM 2.5 under Hepatocyte Growth Factor (HGF) or Vascular Endothelial Growth Factor (VEGF) stimulation conditions: Cell lysates were collected in RIPA lysis buffer (50 mM Tris-HCl, pH 7.4, 150 mM NaCl, 2 mM EDTA, 1% Nonidet P-40, 0.1% SDS) with protease 1× inhibitor cocktail (Roche; Indianapolis, Ind.). Lysates were kept on ice and centrifuged at 10,000×g×10 minutes and total protein was measured using the BCA assay (Pierce, Rockford, Ill.). Protein samples were mixed with 4×LDS loading buffer with 2.5% 2-mercaptoethanol (Sigma-Aldrich), heated to 70° C. for 10 minutes, and loaded on NuPAGE 4-12% Bis-Tris gel (Invitrogen, Carlsbad, Calif.). […] Dual-channel infrared scan and quantitation of immunoblots were conducted using the ODYSSEY Sa infrared imaging system with Image Studio (Ver. 3.1.4) (LI-COR).\nImmune studies of the α4β1 integrins (VCAM-1 and VLA-4) show high affinity α4 integrins may initiate signaling cascades through paxillin that regulate leukocytes migration to inflammation sites. […] The levels of total paxillin and pY118 were measured after activation of metastatic-UM (OMM 2.5) cells with Hepatocyte Growth Factor (HGF) to address in vitro if disruption of α4-downstream signaling through paxillin can affect α4-downstream signaling. […]"}, "metastatic-UM cell": {"system": "metastatic-UM cell", "assay": "CFSE cellular proliferation, metastatic UM", "assay_type": "cell-based, human", "conditions": "metastatic-UM cells; 96 hrs culture, 1 μM for the last 24 hrs", "description": "Harvested cells were resuspended at a concentration of 1.0×10^6 cells/mL in warm PBS/1% FBS. Cells were labeled with […] (Invitrogen) for 5 minutes at 37° C. then quenched on cold growth media (final volume 20 mL) for 10 minutes, twice. Cultured unlabeled cells were used as controls.\nTo test the hypothesis that inhibition of paxillin will reduce cellular proliferation UM cell lines were labeled with carboxyfluorescein succunimidyl ester (CFSE), a cell tracking dye, and cultured for 96 hrs. A group of cells received treatment with compound (II-4) for the last 24 hours. Maximum CFSE fluorescence was controlled using labeled cells prior culture −0 hr. Negative control was established using unlabeled cells cultured in parallel. Histograms in FIG. 15D show 96 hrs cultured cells divided with a 1-log shift or reduction in CFSE intensity. […] Cell proliferation was not affected in the 92.1 cell line. […]\nFIG. 15: The paxillin inhibitor Compound (II-4) selectively affects cellular proliferation of primary UM cells that become metastatic. […] Unlabeled cells were used to control fluorescence. […] B. Quantitation of experiment +/−SD including primary UM that becomes metastatic (Mel 270), metastatic (OMM 2.1) and primary (92.1) UM cells. *P=0.0007 and **P=0.0005. […] Quantitation of VLA-4 protein levels +/−SD from n=3. […]"}}}
{"smiles": "COc1cc(C2OC(=O)Nc3c2ccc2ccccc32)cc(OC)c1OC", "note": "(centres unmarked) [compound II-4]", "values": [{"measurement": "ratio of pY118 paxillin to total paxillin (pPax:Pax)", "setting": "[1]", "value": "dramatically decreased"}, {"measurement": "cell proliferation (CFSE)", "setting": "metastatic-UM cell", "value": "reduction was not observed"}]}
